From patent US11925696B2, “Carbonic anhydrase IX targeting agents and methods” (priority 2016, dated 2024)
Read-outs that look alike come from different tables or passages of the source.

Legend:
[1] = test system: HT-29 xenograft tumors; conditions: for relative average radioactive intensity in the tumor: 10 nmol tail vein, kidneys shielded
Procedure: Whole animal images were taken 4 hours post-injection. […] The percentage of the injected dose per gram of tissue was determined and plotted. Error bars represent standard deviation. (□) Competition; (▪) L2-PEG36-EC20. […] Whole animal images were taken 9 hours post-injection. […] The percentage of the injected dose per gram of tissue was determined and plotted. Error bars represent standard deviation. (□) Competition; (▪) L2-PEG36-EC20. […] Whole animal images were taken 24 hours post-injection. […] The percentage of the injected dose per gram of tissue was determined and plotted. Error bars represent standard deviation. (□) Competition; (▪) L2-PEG36-EC20. […] At various times, animals were sacrificed by CO2 asphyxiation. […] Three mice bearing HT-29 xenografts were administered 10 nmol of conjugate via tail vein injection while an additional three mice also received 100-fold excess unconjugated inhibitor. A single mouse from each of the two groups was sacrificed for whole animal imaging and tissue/organ biodistribution analysis at 4, 9 and 24 hours post injection.

[2] = test system: HT-29 cells; assay: 99mTc conjugates binding to HT-29 cells (apparent KD, gamma counting); set-up: species or system human; conditions: for Kd: 99mTc-bound conjugate, 1 h at 37° C., read-out: Binding Affinity (apparent KD)
Procedure: HT-29 cells (150,000 cells/well in 500 μL) were seeded into 24-well Falcon plates and allowed to form monolayers over 48 h. […] After incubating for 1 h at 37° C., cells were rinsed twice with 1 mL of medium and 1 mL of tris buffer. After dissolving in 0.5 mL of 0.25 M NaOH (aq), cells were transferred into individual γ-counter tubes and radioactivity was counted using a γ-counter (Packard, Packard Instrument Company). Apparent KD was calculated by plotting bound radioactivity versus the concentration of radiotracer using GraphPad Prism 4.

[3] = test system: HT-29 cells; type: cell-based, human; conditions: 2 h exposure, additional 66 h in fresh medium; read-out: IC50 (3H-thymidine incorporation)
Procedure: After washing, the cells were incubated for […] and their viability was determined via ^3H-thymidine uptake.
HT-29 cells were seeded on amine-coated 24-well plates and allowed to form monolayers. The spent medium in each well was replaced with fresh medium (0.5 mL) containing various concentrations of Tubulysin B or L2-Tubulysin B in the presence or absence of 100-fold excess CA IX inhibitor L2. After incubating for 2 h at 37° C., cells were rinsed 3 times with fresh medium and then incubated an additional 66 h at 37° C. in fresh medium. Spent medium in each well was again replaced with fresh medium (0.5 mL) containing ^3H-thymidine (1 μCi/ml) and the cells were incubated for an additional 4 h. After washing the cells 3 times with medium, they were dissolved in 0.5 mL of 0.25 M NaOH. Thymidine incorporation was then determined by counting cell-associated radioactivity using a scintillation counter (Packard, Packard Instrument Company). The IC50 value was derived from a plot of the percent of ^3H-thymidine incorporation versus log concentration using Graph Pad Prism 4 and TableCurve 2D software.

Structure (SMILES): N[C@H](CNC(=O)CCOCCOCCOCCOCCOCCOCCOCCOCCOCCOCCOCCOCCOCCOCCOCCOCCOCCOCCOCCOCCOCCOCCOCCOCCOCCOCCOCCOCCOCCOCCOCCOCCOCCOCCOCCOCCNC(=O)CN(CCN(CC(=O)O)CC(=O)Nc1ccc(S(N)(=O)=O)cc1)CC(=O)Nc1ccc(S(N)(=O)=O)cc1)C(=O)N[C@@H](CC(=O)O)C(=O)NC[C@H](CS)C(=O)O [L2-PEG36-EC20]
- tumor intensity with concurrent 100-fold excess unconjugated inhibitor ([1]; 4, 9 and 24 hours post injection): did not exhibit any intensity in the tumor
- relative average radioactive intensity in the tumor ([1]; 4 hours post injection): ~1300
- relative average radioactive intensity in the tumor ([1]; 9 hours post injection): 750
- relative average radioactive intensity in the tumor ([1]; 24 hours post injection): 350
- Kd [2]: 57 nM

Structure (SMILES): N[C@H](CNC(=O)CCOCCOCCOCCOCCOCCOCCOCCOCCOCCOCCOCCOCCNC(=O)CCC(=O)Nc1cccc(NC(=O)Nc2ccc(S(N)(=O)=O)cc2)c1)C(=O)N[C@@H](CC(=O)O)C(=O)NC[C@H](CS)C(=O)O [L3-PEG12-EC20]
- Kd [2]: 146 nM
- decrease of binding by addition of the PEG12-EC20 ([2]; binding affinity of conjugate versus reported Ki of original ligand): 162 fold

Structure (SMILES): CCCC(=O)OCN(C(=O)[C@@H](NC(=O)[C@H]1CCCCN1C)[C@@H](C)CC)[C@H](C[C@@H](OC(C)=O)c1nc(C(=O)N[C@@H](Cc2ccc(O)cc2)C[C@H](C)C(=O)O)cs1)C(C)C [Tubulysin B, reference compound]
- IC50 [3]: 0.08 nM
